Measured values: patent US8299267B2, “(3-hydroxy-4-amino-butan-2-yl) -3- (2-thiazol-2-yl-pyrrolidine-1-carbonyl) benzamide derivatives and related compounds as beta-secretase inhibitors for treating” (CoMentis, Inc., priority 2007, dated 2012)

Target: memapsin 2 (Homo sapiens, UniProt P56817)
Experiment: Inhibition of memapsin 2 beta-secretase activity toward fluorogenic substrate FS-2
Format: biochemical
Conditions: memapsin 2, pH 4, 37° C., 20 minutes pre-incubation, substrate FS-2; read-out: M2Ki
Procedure: Potency of compounds were determined by measurement of their inhibition of memapsin 2 activity toward a fluorescent substrate. Kinetic inhibition experiments were performed using the procedure as described in Ermolieff, et al. (Biochemistry 39:12450-12456 (2000), the teachings of which are incorporated hereby in their entirety). Briefly, assays were performed at pH 4, 37° C., by pre-incubation of memapsin 2 enzyme with compound for 20 minutes. Activity measurements were initiated by addition of a fluorogenic substrate FS-2 (Bachem Americas, Torrance, Calif.) MCA-SEVNLDAEFK-DNP (SEQ ID NO.: 2). The substrate was derived from 10 amino acids of the human amyloid precursor protein (APP), with the Swedish variant amino acids at the beta-secretase cleavage site. The terminal amino acid was modified from arginine to lysine to facilitate derivatization with a functional group for detection by autofluorescence. The amino acid sequence of the “core” peptide of the substrate is SEVNLDAEFK (SEQ ID NO.: 3). The amino terminus was derivatized with (7-methoxycoumarin-4-yl)acetyl (MCA), and the epsilon amine of the lysine side chain of the terminal residue (K in sequence SEVNLDAEFK (SEQ ID NO.: 4)) was derivatized with 2,4-dinitrophenyl (DNP).

Sequence of memapsin 2 (P56817 46-501): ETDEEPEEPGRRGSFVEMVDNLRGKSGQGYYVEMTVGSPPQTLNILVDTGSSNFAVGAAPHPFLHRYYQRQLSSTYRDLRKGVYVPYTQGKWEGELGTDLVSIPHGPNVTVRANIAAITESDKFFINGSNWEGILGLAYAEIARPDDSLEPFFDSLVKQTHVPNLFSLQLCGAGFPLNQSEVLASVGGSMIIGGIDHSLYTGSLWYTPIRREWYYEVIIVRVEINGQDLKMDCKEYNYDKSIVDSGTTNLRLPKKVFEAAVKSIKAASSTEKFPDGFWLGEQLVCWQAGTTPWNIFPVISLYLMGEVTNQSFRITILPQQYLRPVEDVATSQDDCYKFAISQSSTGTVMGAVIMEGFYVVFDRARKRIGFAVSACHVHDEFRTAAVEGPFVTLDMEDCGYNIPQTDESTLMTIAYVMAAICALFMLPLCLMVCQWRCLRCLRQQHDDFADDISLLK

For `COc1cccc(CNC[C@@H](O)[C@H](Cc2ccccc2)NC(=O)c2cccc(C(=O)N3CCC[C@H]3c3nc(C)cs3)c2)c1` [Compound 4, N-((2S,3R)-3-hydroxy-4-(3-methoxybenzylamino)-1-phenylbutan-2-yl)-3-((S)-2-(4-methylthiazol-2-yl)pyrrolidine-1-carbonyl)benzamide], which Ki is on record?
Its Ki is > 201 nM.

How did the Ki turn out when `COc1cccc(CNC[C@@H](O)[C@H](Cc2ccccc2)NC(=O)c2cccc(C(=O)N3C[C@H](OC)C[C@@H]3c3nc(C)cs3)c2)c1` [Compound 7, N-((2S,3R)-3-hydroxy-4-(3-methoxybenzylamino)-1-phenylbutan-2-yl)-3-((2R,4R)-4-methoxy-2-(4-methylthiazol-2-yl)pyrrolidine-1-carbonyl)benzamide] was run?
The Ki was > 201 nM.

With `COc1cccc(CNC[C@@H](O)[C@H](Cc2ccccc2)NC(=O)c2cccc(C(=O)N3CS(=O)(=O)C[C@@H]3c3nc(C)cs3)c2)c1` [Compound 13, N-((2S,3R)-3-hydroxy-4-(3-methoxybenzylamino)-1-phenylbutan-2-yl)-3-((R)-4-(4-methylthiazol-2-yl)thiazolidine-S-dioxide-3-carbonyl)benzamide] as the compound, how does the Ki read?
The Ki was > 201 nM.

Which Ki does the source give for `Cc1csc([C@H]2CCCN2C(=O)c2cccc(C(=O)N[C@@H](Cc3ccccc3)[C@H](O)CNC3CC3)c2)n1` [Compound 19, N-((2S,3R)-4-(cyclopropylamino)-3-hydroxy-1-phenylbutan-2-yl)-3-((R)-2-(4-methylthiazol-2-yl)pyrrolidine-1-carbonyl)benzamide] here?
Its Ki is > 201 nM.

With `Cc1csc([C@H]2CCCN2C(=O)c2cc(C(=O)N[C@@H](Cc3ccccc3)[C@H](O)CNCc3cncc(C(C)(C)F)c3)cc(N(C)C)c2)n1` [Compound 36, 3-(dimethylamino)-N-((2S,3R)-4-((5-(2-fluoropropan-2-yl)pyridin-3-yl)methylamino)-3-hydroxy-1-phenylbutan-2-yl)-5-((R)-2-(4-methylthiazol-2-yl)pyrrolidine-1-carbonyl)benzamide] as the compound, how does the Ki read?
The Ki was < 100 nM.

For `COc1cccc([C@H](C)NC[C@@H](O)[C@H](Cc2ccccc2)NC(=O)c2cc(C(=O)N3CCC[C@@H]3c3nc(C)cs3)cc(N(C)C)c2)c1` [Compound 53, 3-(dimethylamino)-N-((2S,3R)-3-hydroxy-4-((S)-1-(3-methoxyphenyl)ethylamino)-1-phenylbutan-2-yl)-5-((R)-2-(4-methylthiazol-2-yl)pyrrolidine-1-carbonyl)benzamide], which Ki is on record?
Its Ki is 101 to 200 nM.

Which Ki does the source give for `COc1cc(C(=O)N[C@@H](Cc2ccccc2)[C@H](O)CNCc2cc(Cl)cc(Cl)c2)cc(C(=O)N2CCC[C@@H]2c2nc(C)cs2)c1` [Compound 54, N-((2S,3R)-4-(3,5-dichlorobenzylamino)-3-hydroxy-1-phenylbutan-2-yl)-3-methoxy-5-((R)-2-(4-methylthiazol-2-yl)pyrrolidine-1-carbonyl)benzamide] here?
The Ki was < 100 nM.

Which Ki does the source give for `Cc1csc([C@H]2CCCN2C(=O)c2cc(C(=O)N[C@@H](Cc3ccccc3)[C@H](O)CNCc3cncc(C(C)(C)F)c3)cc(C(F)F)c2)n1` [Compound 58, 3-(difluoromethyl)-N-((2S,3R)-4-((5-(2-fluoropropan-2-yl)pyridin-3-yl)methylamino)-3-hydroxy-1-phenylbutan-2-yl)-5-((R)-2-(4-methylthiazol-2-yl)pyrrolidine-1-carbonyl)benzamide] here?
The Ki was < 100 nM.

Which Ki does the source give for `Cc1csc([C@H]2CCCN2C(=O)c2cncc(C(=O)N[C@@H](Cc3ccccc3)[C@H](O)CNCc3cc(C#N)cc(C(C)C)c3)c2)n1` [Compound 61, N-((2S,3R)-4-(3-cyano-5-isopropylbenzylamino)-3-hydroxy-1-phenylbutan-2-yl)-5-((R)-2-(4-methylthiazol-2-yl)pyrrolidine-1-carbonyl)nicotinamide] here?
The Ki was < 100 nM.

How did the Ki turn out when `Cc1csc([C@H]2CCCN2C(=O)c2cc(C(=O)N[C@@H](Cc3ccccc3)[C@H](O)CNCc3cncc(C(C)C)c3)cc(C(F)F)c2)n1` [Compound 62, 3-(difluoromethyl)-N-((2S,3R)-3-hydroxy-4-((5-isopropylpyridin-3-yl)methylamino)-1-phenylbutan-2-yl)-5-((R)-2-(4-methylthiazol-2-yl)pyrrolidine-1-carbonyl)benzamide] was run?
Its Ki is < 100 nM.

How did the Ki turn out when `COc1cccc([C@H](C)NC[C@@H](O)[C@H](Cc2ccccc2)NC(=O)c2cc(C(=O)N3CCC[C@@H]3c3nc(C)cs3)cc(C(F)F)c2)c1` [Compound 63, 3-(difluoromethyl)-N-((2S,3R)-3-hydroxy-4-((S)-1-(3-methoxyphenyl)ethylamino)-1-phenylbutan-2-yl)-5-((R)-2-(4-methylthiazol-2-yl)pyrrolidine-1-carbonyl)benzamide] was run?
The Ki was < 100 nM.

`Cc1csc(CNC[C@@H](O)[C@H](Cc2ccccc2)NC(=O)c2cccc(C(=O)N3CCC[C@@H]3c3nc(C)cs3)c2)n1` [Compound 67, N-((2S,3R)-3-hydroxy-4-((4-methylthiazol-2-yl)methylamino)-1-phenylbutan-2-yl)-3-((R)-2-(4-methylthiazol-2-yl)pyrrolidine-1-carbonyl)benzamide] was tested. Which Ki did it give?
The Ki was > 201 nM.

`Cc1coc([C@H]2CCCN2C(=O)c2cncc(C(=O)N[C@@H](Cc3ccccc3)[C@H](O)CNCc3cccc(C(F)(F)F)c3)c2)n1` [Compound 72, N-((2S,3R)-3-hydroxy-1-phenyl-4-(3-(trifluoromethyl)benzylamino)butan-2-yl)-5-((R)-2-(4-methyloxazol-2-yl)pyrrolidine-1-carbonyl)nicotinamide] was tested. Which Ki did it give?
The Ki was < 100 nM.

How did the Ki turn out when `Cc1cc(C(=O)N2CCC[C@@H]2c2nc(C)co2)cc(C(=O)N[C@@H](Cc2ccccc2)[C@H](O)CNCc2cccc(C(F)(F)F)c2)n1` [Compound 96, N-((2S,3R)-3-hydroxy-1-phenyl-4-(3-(trifluoromethyl)benzylamino)butan-2-yl)-6-methyl-4-((R)-2-(4-methyloxazol-2-yl)pyrrolidine-1-carbonyl)picolinamide] was run?
The Ki was < 100 nM.

With `Cc1cc(C(=O)N[C@@H](Cc2ccccc2)[C@H](O)CNCc2cc3ccccc3o2)cc(C(=O)N2CCC[C@@H]2c2nc(C)cs2)c1` [Compound 97, N-((2S,3R)-4-(benzofuran-2-ylmethylamino)-3-hydroxy-1-phenylbutan-2-yl)-3-methyl-5-((R)-2-(4-methylthiazol-2-yl)pyrrolidine-1-carbonyl)benzamide] as the compound, how does the Ki read?
The Ki was > 201 nM.

With `Cc1csc([C@H]2CCCN2C(=O)c2cc(C(=O)N[C@@H](Cc3ccccc3)[C@H](O)CNCc3cccc(C(F)(F)F)c3)cc(N(C)C)n2)n1` [Compound 98, 2-(dimethylamino)-N-((2S,3R)-3-hydroxy-1-phenyl-4-(3-(trifluoromethyl)benzylamino)butan-2-yl)-6-((R)-2-(4-methylthiazol-2-yl)pyrrolidine-1-carbonyl)isonicotinamide] as the compound, how does the Ki read?
The Ki was < 100 nM.

With `Cc1csc([C@H]2CCCN2C(=O)c2cccc(C(=O)N[C@@H](Cc3ccccc3)[C@H](O)CNCc3cc(C(C)C)no3)c2)n1` [Compound 99, N-((2S,3R)-3-hydroxy-4-((3-isopropylisoxazol-5-yl)methylamino)-1-phenylbutan-2-yl)-3-((R)-2-(4-methylthiazol-2-yl)pyrrolidine-1-carbonyl)benzamide] as the compound, how does the Ki read?
The Ki was < 100 nM.

How did the Ki turn out when `Cc1csc([C@H]2CCCN2C(=O)c2cc(C(=O)N[C@@H](Cc3ccccc3)[C@H](O)CNCc3cccc(C(F)(F)F)c3)nc(N(C)C)n2)n1` [Compound 100, 2-(dimethylamino)-N-((2S,3R)-3-hydroxy-1-phenyl-4-(3-(trifluoromethyl)benzylamino)butan-2-yl)-6-((R)-2-(4-methylthiazol-2-yl)pyrrolidine-1-carbonyl)pyrimidine-4-carboxamide] was run?
Its Ki is < 100 nM.
